Experimental data taken from patent publication US12528801B2 (Givaudan SA, priority 2019, dated 2026).

Biological target: T1, hTRPM8 (Homo sapiens, UniProt Q7Z2W7)
T1 construct: expressed in transfected cells
Test: Assay on TRPM8 modulators: calcium imaging (Fluo-4, Flexstation) in HEK293 cell line stably expressing hTRPM8
Type: cell-based
Conditions: HEK293 cells stably expressing hTRPM8; calcium influx, Fluo-4, Flexstation 3; sigmoidal dose-response fit
Protocol: A HEK293 cell line stably expressing hTRPM8 was generated according to Klein of at, (Chem. Senses 36: […], 2011) and receptor activation was monitored by calcium imaging in a Flexstation. For Ca-imaging assays of TRPM8 channel activation, cells were seeded on day 0 at a density of 12000 cells per well in Dulbecco's modified Eagle medium (DMEM) containing 9% foetal bovine serum in black, clear bottom 96-well plates that had been coated with 0.001% polyethyleneimine (molecular weight=60 000, Acros Organics). On day 2, agonists were evaluated via calcium imaging using Fluo-4. Briefly, growth medium was discarded, and the cells were incubated in the dark for 1 h at 37° C. in 50 μL loading buffer consisting of 2.7 μM Fluo-4 AM (Invitrogen) and […] probenecid (Sigma-Aldrich) in DMEM (without serum). After incubation, the plates were washed five times with 100 μL of assay buffer (in mM: 130 NaCl, 5 KCl, 10 HEPES, 2 CaCl2, and 10 glucose, pH7.4.) and further incubated in the dark at room temperature for 30 min. The cells were then washed five times with 100 μL assay buffer and then calcium influx to serial dilutions of inventive compounds were measured in a Flexstation 3 (Molecular Devices). Receptor activation was initiated following addition of 20 μl of a 10-fold concentrated ligand stock solution, which is also prepared in assay buffer. Fluorescence was continuously monitored for 15 seconds prior to ligand addition and for 105 seconds after ligand addition, for a total of 120 seconds. Maximal receptor activation in relation to solvent control and relative to 31.6 μM menthol is determined. Data from serial dilutions were processed with a KNIME workflow to fit a sigmoidal dose-response curve and to extrapolate […].

T1 sequence (Q7Z2W7 whole entry): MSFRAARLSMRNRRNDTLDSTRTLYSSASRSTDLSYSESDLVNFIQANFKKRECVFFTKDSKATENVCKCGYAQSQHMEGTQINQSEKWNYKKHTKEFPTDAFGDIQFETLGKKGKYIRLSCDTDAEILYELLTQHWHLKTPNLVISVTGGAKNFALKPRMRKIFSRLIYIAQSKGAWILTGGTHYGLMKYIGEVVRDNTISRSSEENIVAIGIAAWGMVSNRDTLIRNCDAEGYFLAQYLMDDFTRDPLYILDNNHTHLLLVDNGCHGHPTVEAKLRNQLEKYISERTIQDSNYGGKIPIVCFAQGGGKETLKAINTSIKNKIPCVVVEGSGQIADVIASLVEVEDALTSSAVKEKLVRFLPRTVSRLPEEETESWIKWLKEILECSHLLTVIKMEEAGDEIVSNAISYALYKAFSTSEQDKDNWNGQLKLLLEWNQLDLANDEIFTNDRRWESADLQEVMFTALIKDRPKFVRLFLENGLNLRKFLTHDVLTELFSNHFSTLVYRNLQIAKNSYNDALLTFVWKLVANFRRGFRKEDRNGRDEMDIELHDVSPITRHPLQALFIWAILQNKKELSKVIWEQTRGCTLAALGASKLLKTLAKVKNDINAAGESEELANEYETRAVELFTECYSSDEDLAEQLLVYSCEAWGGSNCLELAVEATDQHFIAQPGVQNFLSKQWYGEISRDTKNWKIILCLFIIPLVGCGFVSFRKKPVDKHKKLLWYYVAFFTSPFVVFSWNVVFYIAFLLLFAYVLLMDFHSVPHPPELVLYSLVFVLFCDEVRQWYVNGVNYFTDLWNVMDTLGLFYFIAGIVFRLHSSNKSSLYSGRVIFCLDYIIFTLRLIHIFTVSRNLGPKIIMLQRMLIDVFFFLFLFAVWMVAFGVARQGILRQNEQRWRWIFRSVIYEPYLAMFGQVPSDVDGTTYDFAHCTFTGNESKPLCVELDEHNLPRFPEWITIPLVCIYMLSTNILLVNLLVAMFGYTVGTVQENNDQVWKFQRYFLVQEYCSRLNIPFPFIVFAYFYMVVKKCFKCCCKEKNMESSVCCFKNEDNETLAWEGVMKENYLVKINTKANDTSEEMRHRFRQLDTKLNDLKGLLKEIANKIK

SMILES | EC50 [nM]
CO[C@@H]1C[C@H]1C(=O)N1CCCCC1c1nc(-c2ccccc2)c[nH]1 (relative stereo) [Compound 5, (trans-2-methoxycyclopropyl)(2-(4-phenyl-1H-imidazol-2-yl)piperidin-1-yl)methanone] | 1000 to 35000
N#C[C@@H]1C[C@@H]1C(=O)N1CCCCC1c1nc(-c2ccccc2)c[nH]1 (relative stereo) [Compound 90, cis-2-(2-(4-phenyl-1H-imidazol-2-yl)piperidine-1-carbonyl)cyclopropane-1-carbonitrile] | 1000 to 35000
O=C(c1cnns1)N1CCCCC1c1nc(-c2ccccc2)c[nH]1 (stereo not shown) [Compound 1, (2-(4-phenyl-1H-imidazol-2-y)piperidin-1-yl)(1,2,3-thiadiazol-5-yl)methanone] | 1000 to 35000
O=C(C1CSC1)N1CCCCC1c1nc(-c2ccccc2)c[nH]1 (stereo not shown) [Compound 2, (2-(4-phenyl-1H-imidazol-2-yl)piperidin-1-yl)(thietan-3-yl)methanone] | 300 to 1000
CCOC1CC1C(=O)N1CCCCC1c1nc(-c2ccccc2)c[nH]1 (stereo not shown) [Compound 4, (2-ethoxycyclopropyl)(2-(4-phenyl-1H-imidazol-2-yl)piperidin-1-yl)methanone] | 300 to 1000
CC1CC(C(=O)N2CCCCC2c2nc(-c3ccccc3)c[nH]2)CO1 (stereo not shown) [Compound 7, (5-methyltetrahydrofuran-3-yl)(2-(4-phenyl-1H-imidazol-2-yl)piperidin-1-yl)methanone] | 1000 to 35000
Cc1ccc(-c2cnc(C3CCCCN3C(=O)C3CCOC3)[nH]2)cc1 (stereo not shown) [Compound 14, (tetrahydrofuran-3-yl)(2-(5-(p-toly)-1H-imidazol-2-yl)piperidin-1-yl)methanone] | 300 to 1000
CSC(C)C(=O)N1CCCCC1c1nc2ccccc2[nH]1 (stereo not shown) [Compound 15, 1-(2-(1H-benzo[d]imidazol-2-yl)piperidin-1-yl)-2-(methylthio)propan-1-one] | 1000 to 35000
CSC(C)C(=O)N1CCCCC1c1nc(-c2cnn(C)c2)c[nH]1 (stereo not shown) [Compound 16, 1-(2-(4-(1-methyl-1H-pyrazol-4-yl)-1H-imidazol-2-yl)piperidin-1-yl)-2-(methylthio)propan-1-one] | 300 to 1000
CSC(C)C(=O)N1CCCCC1c1nc(-c2cc(C)ccc2C)c[nH]1 (stereo not shown) [Compound 20, 1-(2-(4-(2,5-dimethylphenyl)-1H-imidazol-2-yl)piperidin-1-yl)-2-(methylthio)propan-1-one] | 300 to 1000
CSC(C)C(=O)N1CCCCC1c1nc(-c2cccc(CN(C)C)c2)c[nH]1 (stereo not shown) [Compound 25, 1-(2-(4-(3-((dimethylamino)methyl)phenyl)-1H-imidazol-2-yl)piperidin-1-yl)-2-(methylthio)propan-1-one] | 300 to 1000
CSC(C)C(=O)N1CCCCC1c1nc(-c2c(C)noc2C)c[nH]1 (stereo not shown) [Compound 27, 1-(2-(4-(3,5-dimethylisoxazol-4-yl)-1H-imidazol-2-yl)piperidin-1-yl)-2-(methylthio)propan-1-one] | 1000 to 35000
CSC(C)C(=O)N1CCCCC1c1nc(-c2occc2C)c[nH]1 (stereo not shown) [Compound 29, 1-(2-(4-(3-methylfuran-2-yl)-1H-imidazol-2-yl)piperidin-1-yl)-2-(methylthio)propan-1-one] | 50 to 300
CSC(C)C(=O)N1CCCCC1c1nc(-c2ccc(CN3CCS(=O)(=O)CC3)cc2)c[nH]1 (stereo not shown) [Compound 30, 1-(2-(4-(4-((1,1-dioxidothiomorpholino)methyl)phenyl)-1H-imidazol-2-yl)piperidin-1-yl)-2-(methylthio)propan-1-one] | 1000 to 35000
CSC(C)C(=O)N1CCCCC1c1nc(-c2ccc(C(C)O)cc2)c[nH]1 (stereo not shown) [Compound 31, 1-(2-(4-(4-(1-hydroxyethyl)phenyl)-1H-imidazol-2-yl)piperidin-1-yl)-2-(methylthio)propan-1-one] | 50 to 300
CSC(C)C(=O)N1CCCCC1c1nc(-c2cscc2C(F)F)c[nH]1 (stereo not shown) [Compound 33] | 50 to 300
CSC(C)C(=O)N1CCCCC1c1nc(-c2ccc(S(C)(=O)=O)cc2)c[nH]1 (stereo not shown) [Compound 34, 1-(2-(4-(4-(methylsulfonyl)phenyl)-1H-imidazol-2-yl)piperidin-1-yl)-2-(methylthio)propan-1-one] | 1000 to 35000
CSC(C)C(=O)N1CCCCC1c1nc(-c2ccc(S(C)(=O)=O)cc2)c[nH]1 (stereo not shown) [Compound 35] | 1000 to 35000

Further lines, results first:

EC50 [nM] | SMILES
< 50 | CC1(C)CC1C(=O)N1CCCCC1c1nc(-c2ccccc2)c[nH]1 (stereo not shown) [Compound 3, (2,2-dimethylcyclopropyl)(2-(4-phenyl-1H-imidazol-2-yl)piperidin-1-yl)methanone]
50 to 300 | CC1CC1C(=O)N1CCCCC1c1nc(-c2ccccc2)c[nH]1 (stereo not shown) [Compound 6, (2-methylcyclopropyl)(2-(4-phenyl-1H-imidazol-2-yl)piperidin-1-yl)methanone]
50 to 300 | C/C=C(\C)C(=O)N1CCCCC1c1ncc(-c2ccc(F)c(F)c2)[nH]1 (stereo not shown) [Compound 8, (E)-1-(2-(5-(3,4-difluorophenyl)-1H-imidazol-2-yl)piperidin-1-yl)-2-methylbut-2-en-1-one]
< 50 | C/C=C(\C)C(=O)N1CCCCC1c1ncc(-c2ccc(C)cc2)[nH]1 (stereo not shown) [Compound 9, (E)-2-methyl-1-(2-(5-(p-tolyl)-1H-imidazol-2-yl)piperidin-1-yl)but-2-en-1-one]
< 50 | C/C=C/C(C)C(=O)N1CCCCC1c1ncc(-c2ccc(C)cc2)[nH]1 (stereo not shown) [Compound 10, (E)-2-methyl-1-(2-(5-(p-tolyl)-1H-imidazol-2-yl)piperidin-1-yl)pent-3-en-1-one]
< 50 | CS[C@@H](C)C(=O)N1CCCC[C@@H]1c1ncc(-c2ccc(C)cc2)[nH]1 [Compound 12, (S)-2-(methylthio)-1-((R)-2-(5-(p-tolyl)-1H-imidazol-2-yl)piperidin-1-yl)propan-1-one]
50 to 300 | CS[C@@H](C)C(=O)N1CCCC[C@H]1c1ncc(-c2ccc(C)cc2)[nH]1 [Compound 13, (S)-2-(methylthio)-1-((S)-2-(5-(p-tolyl)-1H-imidazol-2-yl)piperidin-1-yl)propan-1-one]
< 50 | CSC(C)C(=O)N1CCCCC1c1nc(-c2ccc3c(c2)OC(F)(F)O3)c[nH]1 (stereo not shown) [Compound 17, 1-(2-(4-(2,2-difluorobenzo[d][1,3]dioxol-5-yl)-1H-imidazol-2-yl)piperidin-1-yl)-2-(methylthio)propan-1-one]
< 50 | CSC(C)C(=O)N1CCCCC1c1nc(-c2ccc3c(c2)CCO3)c[nH]1 (stereo not shown) [Compound 18, 1-(2-(4-(2,3-dihydrobenzofuran-5-yl)-1H-imidazol-2-yl)piperidin-1-yl)-2-(methylthio)propan-1-one]
< 50 | CSC(C)C(=O)N1CCCCC1c1nc(-c2ccc3c(c2)OCC3)c[nH]1 (stereo not shown) [Compound 19, 1-(2-(4-(2,3-dihydrobenzofuran-6-yl)-1H-imidazol-2-yl)piperidin-1-yl)-2-(methylthio)propan-1-one]
< 50 | CSC(C)C(=O)N1CCCCC1c1nc(-c2ccccc2Cl)c[nH]1 (stereo not shown) [Compound 21, 1-(2-(4-(2-chlorophenyl)-1H-imidazol-2-yl)piperidin-1-yl)-2-(methylthio)propan-1-one]
50 to 300 | CSC(C)C(=O)N1CCCCC1c1nc(-c2cnc(C3CC3)o2)c[nH]1 (stereo not shown) [Compound 22, 1-(2-(4-(2-cyclopropyloxazol-5-yl)-1H-imidazol-2-yl)piperidin-1-yl)-2-(methylthio)propan-1-one]
< 50 | CSC(C)C(=O)N1CCCCC1c1nc(-c2ccccc2F)c[nH]1 (stereo not shown) [Compound 23, 1-(2-(4-(2-fluorophenyl)-1H-imidazol-2-yl)piperidin-1-yl)-2-(methylthio)propan-1-one]
50 to 300 | CSC(C)C(=O)N1CCCCC1c1nc(-c2ccccc2O)c[nH]1 (stereo not shown) [Compound 24, 1-(2-(4-(2-hydroxyphenyl)-1H-imidazol-2-yl)piperidin-1-yl)-2-(methylthio)propan-1-one]
< 50 | CSC(C)C(=O)N1CCCCC1c1nc(-c2cc(F)cc(F)c2)c[nH]1 (stereo not shown) [Compound 26, 1-(2-(4-(3,5-difluorophenyl)-1H-imidazol-2-yl)piperidin-1-yl)-2-(methylthio)propan-1-one]
< 50 | CSC(C)C(=O)N1CCCCC1c1nc(-c2ccc(C)c(Cl)c2)c[nH]1 (stereo not shown) [Compound 28, 1-(2-(4-(3-chloro-4-methylphenyl)-1H-imidazol-2-yl)piperidin-1-yl)-2-(methylthio)propan-1-one]
< 50 | CSC(C)C(=O)N1CCCCC1c1nc(-c2ccc(OC(F)F)c(F)c2)c[nH]1 (stereo not shown) [Compound 32, 1-(2-(4-(4-(difluoromethoxy)-3-fluorophenyl)-1H-imidazol-2-yl)piperidin-1-yl)-2-(methylthio)propan-1-one]
< 50 | CSC(C)C(=O)N1CCCCC1c1nc(-c2ccc(C3CCC3)cc2)c[nH]1 (stereo not shown) [Compound 36, 1-(2-(4-(4-cyclobutylphenyl)-1H-imidazol-2-yl)piperidin-1-yl)-2-(methylthio)propan-1-one]
< 50 | CSC(C)C(=O)N1CCCCC1c1nc(-c2ccc(C3CC3)cc2F)c[nH]1 (stereo not shown) [Compound 37, 1-(2-(4-(4-cyclopropyl-2-fluorophenyl)-1H-imidazol-2-yl)piperidin-1-yl)-2-(methylthio)propan-1-one]
